Results as given in patent US20260183274A1, “PDK1 REGULATORY COMPOUND AND COMPOSITION CONTAINING THE SAME” (PROVIBIO CO., LTD., priority 2024, published 2026).

Tests used:
[1] = test system: Human Kidney Cancer cell line, ACHN; assay: Relative cell viability CCK-8, ACHN; format: cell-based; settings: 48 hours
Method: Similarly, human-derived cervical cancer cell line HeLa and renal cancer cell line ACHN, obtained from the Korean Cell Bank, were cultured in DMEM medium containing 10% FBS, 100 U/mL penicillin, and 100 μg/mL streptomycin.
(§1) Following stabilization, the cells were harvested using Trypsin-EDTA treatment, centrifuged at 1,200 rpm for 3 minutes, the supernatant was removed, and the cells were resuspended in the same medium. They were then seeded into a 96-well plate (Costar 96-well cell culture plate, Corning) at 100 μL per well, and the conditions were adjusted as indicated in Table 5.
(§2) The cells were cultured in a 5% CO2 incubator at 37° C. for 24 hours, and after stabilization of the cells, each plate was washed with 200 μL of PBS per well and treated with 50 μL of culture medium per well.
The compounds according to the present invention or the control group (DMSO) were added at concentrations of 0, 10, 30, and 50 μM in 50 μL aliquots to the plates, and the plates were cultured at 37° C. in a 5% CO2 incubator for 48 hours.
(§3) After that, 10 μL of CCK-8 was added to each well, and the plate was incubated again at 37° C. in a 5% CO2 incubator for 2 hours.
(§4) In other words, when the survival rate of untreated cells (DMSO) is set at 100%, the relative cell survival rate in each group treated with the drug at different concentrations is indicated.

[2] = test system: Human multiple myeloma, KMS34; assay: Relative cell viability, KMS34; format: cell-based; settings: KMS34 cells, 1 μM, relative to untreated cells
Method: as §3, §4

[3] = test system: Human multiple myeloma, KMS26; assay: Relative cell viability, KMS26; format: cell-based; settings: KMS26 cells, relative to untreated cells
Method: as §3, §4

[4] = test system: Human Melanoma cancer cell, Malme-3M; assay: Relative cell viability CCK-8, Malme-3M; format: cell-based; settings: 48 hours
Method: (§5) Human-derived breast cancer cell line MCF-7, human-derived lung cancer cell line A549, human-derived colorectal cancer cell line HCT-116, human pancreatic cancer cell line AsPC-1, glioblastoma cell line A172, and melanoma cell line Malme-3M were obtained from the Korean Cell Bank. gastric cancer cell line SNU-719, and bladder cancer cell line T24 were cultured in RPMI-1640 medium containing 10% FBS.
as §1, §2, §3, §4

[5] = test system: Human Pancreas Adenocarcinoma cell line, AsPC-1; assay: Relative cell viability CCK-8, AsPC-1; format: cell-based; settings: 48 hours; for viability at 1 µM: ASPC1, 1 μM; for viability at 10 µM: ASPC1, 10 μM; for viability at 30 µM: ASPC1, 30 μM; for viability at 50 µM: ASPC1, 50 μM
Method: as §5, §1, §2, §3, §4

[6] = test system: human lung fibroblasts MRC-5 cell lines; assay: TGF-β induced Collagen I expression in MRC-5 cells (Western blot); format: cell-based; settings: TGF-β 5 ng/ml; 0.5 μM and 1 μM; 24 hours; FIG. 44
Method: To confirm that the compound of the present invention directly acts on fibrosis-related mechanisms, in vitro experiments were performed using human lung fibroblasts MRC-5 cell lines (Korea Cell Bank).
First, MRC-5 cells were seeded at 5×10^3 cells per well in a 6-well plate and stabilized for 24 hours.
Subsequently, experimental groups were established, including a control group, a group treated with TGF-β (5 ng/ml) alone, and groups treated with TGF-β and the compound GO88 from the present invention at concentrations of 0.5 μM and 1 μM, respectively.
After treating each group with the drugs for 24 hours, the cell medium was removed, and the cells were washed twice with cold PBS. Then, RIPA lysis buffer containing phosphatase inhibitor and protease inhibitor was added to each group to extract proteins.
The extracted proteins were incubated at 4° C. for 30 minutes, then centrifuged at 13,000 rpm for 15 minutes, and the supernatant was collected. The total protein concentration was measured using the BCA protein quantification method.
Subsequently, the proteins were separated by SDS-PAGE, transferred to a PVDF membrane, and Western blot analysis was performed.
The expression levels of Collagen I, a marker related to pulmonary fibrosis, were confirmed, with GAPDH used as an internal control.

[7] = test system: Balb/c mice with induced pulmonary fibrosis; assay: Bleomycin-induced pulmonary fibrosis animal model; format: in vivo, mouse; settings: vs BLM-treated group; for Collagen deposition (Masson's trichrome, Sirius red): FIG. 42; for Expression of α-SMA in lung tissue (IHC): FIG. 43
Source text: To evaluate the therapeutic efficacy of the compound according to the present invention against pulmonary fibrosis, an animal model of pulmonary fibrosis induced by bleomycin intratracheal administration was established.
For this purpose, 8-week-old male Balb/c mice were subjected to general anesthesia using an inhalation anesthetic (2-3% isoflurane in oxygen), followed by disinfection of the neck region, skin incision, and exposure of the trachea.
Bleomycin (Sigma-Aldrich, USA) was directly administered into the trachea at a concentration of 5 mg/kg in a solution of 100 μL.
Two days prior to Bleomycin administration, the compound of the present invention or the comparative drug was administered intraperitoneally at the specified concentration and dose, and the administration was continued once daily for a total of 14 days.
The experimental groups included Normal, Bleomycin alone (BLM), and BLM plus the compound of the present invention (BLM+GO88, 0.2 mg/kg).
Ten days later, the mice were euthanized humanely using carbon dioxide gas, the trachea was incised, and PBS was injected into the trachea to remove blood from the lungs.
The lung tissue washed with PBS was excised, fixed in 4% paraformaldehyde solution for 24 hours, and then paraffin blocks and tissue sections were prepared. The prepared sections were subjected to pathological analysis using H&E, Masson's trichrome, and Sirius red staining.
Additionally, immunohistochemical (IHC) staining was performed for α-SMA (α-smooth muscle actin), an indicator of lung fibroblast activation.

SMILES | viability at 1 µM [1] [%] | viability at 10 µM [1] [%] | viability at 30 µM [1] [%] | viability at 50 µM [1] [%] | viability at 1 µM [5] [%] | viability at 10 µM [5] [%] | viability at 30 µM [5] [%] | viability at 50 µM [5] [%] | Collagen deposition (Masson's trichrome, Sirius red) [7] | Expression of α-SMA in lung tissue (IHC) [7] | further results
Nc1ncccc1C(=O)NCCCCCCCCCCCCN1CCNCC1 [Compound 5, 2-Amino-N-(12-(piperazin-1-yl)dodecyl)-nicotinamide] | 29.5 | 30 | 29.2 | 28.3 |  |  |  |  |  |  | 
CC1(C)CN(CCCCCCCCCCCCC(=O)Nc2nc(N)c3[nH]cnc3n2)CCO1 [Compound 11, 12-[4-(2,2-dimethylmorpholin-4-yl)]dodecyl-N-(6-aminopurine-2-yl) carboxamide] |  |  |  |  |  |  |  |  |  |  | Relative cell viability (%) [2]: 26.19%; Relative cell viability (%) ([3]; 1 μM): 31.19%; Relative cell viability (%), Malme-3M ([4]; 1 μM): 44.06%; Relative cell viability (%), Malme-3M ([4]; 10 μM): 37.40%; Relative cell viability (%), Malme-3M ([4]; 30 μM): 36.80%; Relative cell viability (%), Malme-3M ([4]; 50 μM): 38.87%
Nc1ncccc1C(=O)NCCCCCCCCCCCCN1CCNCC1 [Compound 14, 2-Amino-N-(12-(piperazin-1-yl)dodecyl)nicotinamide] |  |  |  |  | 43.1 | 45.4 | 36.8 | 30.5 | significantly reduced | significantly suppressed | Protein expression of Collagen I [6]: inhibited in a concentration-dependent manner; viability at 1 µM ([4]; Homo sapiens, Malme-3M, 1 μM): 43.7%; viability at 10 µM ([4]; Homo sapiens, Malme-3M, 10 μM): 31.2%; viability at 30 µM ([4]; Homo sapiens, Malme-3M, 30 μM): 16.3%; viability at 50 µM ([4]; Homo sapiens, Malme-3M, 50 μM): 15.9%
Nc1nc(NC(=O)CCCCCCCCCCCCN2CCN(CCO)CC2)nc2nc[nH]c12 [Compound 15, 12-[4-(2-hydroxyethyl)piperazin-1-yl]dodecyl-N-(6-aminopurine-2-yl) carboxamide] | 31.7 | 30 | 30.6 | 30.3 | 40.9 | 42.8 | 44.1 | 41.5 |  |  | 
Nc1ncccc1C(=O)NCCCCCCCCCCCCF [Compound 57, 2-Amino-N-(12-fluoro-dodecyl)-nicotinamide] |  |  |  |  |  |  |  |  | significantly reduced | significantly suppressed | viability at 10 µM ([3]; Homo sapiens, KMS-26, 10 μM): 44.4%; viability at 30 µM ([3]; Homo sapiens, KMS-26, 30 μM): 43.1%
